The source of these data is patent US10265298B2, “Method of increasing the bioavailability of silybin” (Macau University of Science and Technology, priority 2017, dated 2019).

In data set [1] the test system is Caco-2 cells. In words: Glucuronidation of silybin in Caco-2 cells (LC-MS peak area of silybin glucuronides). Format: in vitro ADME, human. As to conditions: silybin 10 μM, test compound 20 μM co-incubation. The protocol: The analysis of silybin and total concentrations of glucuronides and sulfates was performed on an Agilent HP 1100 LC-MS system (Agilent, CA). A Waters ACQUITY UPLC® BEH C18 Column (1.7 μm, 2.1×50 mm, Waters Corp., Ireland) was used for detection with a C18 Security Guard cartridge (4×2.0 mm i.d., Phenomenex, Torrance, Calif.). Silybin A and silybin B were well separated using optimized gradient elution with methanol (mobile phase B) and 0.1% formic acid in water (mobile phase A) as mobile phase at a flow rate of 0.4 ml/min with a run time of 10 minutes. The gradient employed was as follows (time: mobile phase B percentage): 0 min: 25%, 6 minutes: 40%, 6.5 minutes: 25%.
MS parameters including: capillary voltage, −4000 V; nebulizer pressure, 40 pounds per square inch (psi); drying gas, 9 liters per minute (L/min); drying gas temperature, 325° C.; fragment voltage, 35 volts; dwell time, 200 milliseconds (ms); scan mode, selective ion monitoring (SIM) with [M-H]− for silybin (mass-to-charge ratio (m/z) 481), mono-glucuronide (m/z 657), and NG (m/z 271), respectively. LC-MS data were obtained by Agilent ChemStation Software.
Silybin is primarily metabolized to glucuronide (about 55%) and sulfate (about 28%) conjugates in human plasma after oral administration. To examine whether the co-incubation of flavonoids could affect the conjugation of silybin, the peak area of silybin glucuronides was measured by LC-MS (FIG. 6). Identification of glucuronides in the samples was based on their MS in-source fragmentations (m/z 657).

In data set [2] the target is MDR1 (P-gp) (Homo sapiens, UniProt P08183). The data set can be described thus: cell-based. As to the method: (§1) Parental Madin-Darby canine kidney II (MDCKII), multi-drug resistance gene 1-Madin-Darby canine kidney II (MDR1-MDCKII), breast cancer resistance protein-Madin-Darby canine kidney II (BCRP-MDCKII), and multi-drug resistance protein 2-Madin-Darby canine kidney II (MRP2-MDCKII) cells were kindly provided by the Netherlands Cancer Institute (Amsterdam, Netherlands) and frozen at −80° C. The MDCKII cells were cultured at 37° C./5% CO2 in Dulbecco's modified Eagle's medium supplemented with 10% fetal bovine serum, 1% nonessential amino acids, and 2% penicillin-streptomycin. The cells were seeded on transwell inserts (Corning Inc.) at a density of 2.0×10^5 cells/cm^2 and grown for 4-5 days to form confluent monolayers.
(§2) Bidirectional transport assays in human colorectal adenocarcinoma 2 (Caco-2) and Madin-Darby canine kidney II (MDCK II) was carried out by dosing substrates in assay buffer to either the apical chamber (A-to-B) or the basolateral chamber (B-to-A); cells were then incubated at 37° C. with shaking at 50 rotations per minute (rpm), and 100 μl samples were collected at 30, 60, 90, 120 and 180 minutes from the basolateral chamber to study the drug transport of AP to BL, or apical chamber to study the drug transport of BL to AP. Cell monolayers were then washed twice with ice-cold assay buffer and lysed with methanol on ice for 10 minutes. For inhibition studies, Caco-2 or MDCK II cell monolayers were pre-incubated with an inhibitor in both apical and basolateral chambers for 30 minutes, and bidirectional transport of 10 μM silybin was conducted in the absence (control) or presence of the inhibitor in both chambers. […] For fluorescence intensity detection, samples collected from AP or BL side were immediately detected in 96 well black plate by Microplate ultraviolet-visible spectroscopy (UV/VIS) spectrophotometer (TECAN infinite M200 PRO, Männedorf, Switzerland). In all cases, each determination was performed in triplicate.
(§3) The apparent permeability coefficients (Papp) were calculated as Papp=dQ/dt×1/(C“0”A) where dQ/dt (mM/sec) is the rate of permeation of the drug across the cells, C0 (millimolar (mM)) is the donor compartment concentration at time zero and A (cm^2) is the area of the cell monolayer. C0 is obtained from analysis of the dosing solution at the start experiment. Efflux Ratio (ER)=Papp (B to A)/Papp (A to B), while Papp (B−A) is the Papp value measured in the B to A direction, and Papp (A−B) is the Papp value measured in the A to B direction. 1.5 Preparation of Rat Sandwich-Cultured Hepatocytes
(§4) (*, P<0.05;**, P<0.01; ***, P<0.001 vs absence of any inhibitor. n=3).
as §4

In data set [3] the target is MRP2 (Homo sapiens, UniProt Q92887). The data set can be described thus: cell-based. The following applies: for efflux ratio of CDCFDA in the presence of inhibitor: dog, 180 min. As to the method: as §1, §2, §3, §4, §4
Sequence of MRP2 (Q92887 whole entry): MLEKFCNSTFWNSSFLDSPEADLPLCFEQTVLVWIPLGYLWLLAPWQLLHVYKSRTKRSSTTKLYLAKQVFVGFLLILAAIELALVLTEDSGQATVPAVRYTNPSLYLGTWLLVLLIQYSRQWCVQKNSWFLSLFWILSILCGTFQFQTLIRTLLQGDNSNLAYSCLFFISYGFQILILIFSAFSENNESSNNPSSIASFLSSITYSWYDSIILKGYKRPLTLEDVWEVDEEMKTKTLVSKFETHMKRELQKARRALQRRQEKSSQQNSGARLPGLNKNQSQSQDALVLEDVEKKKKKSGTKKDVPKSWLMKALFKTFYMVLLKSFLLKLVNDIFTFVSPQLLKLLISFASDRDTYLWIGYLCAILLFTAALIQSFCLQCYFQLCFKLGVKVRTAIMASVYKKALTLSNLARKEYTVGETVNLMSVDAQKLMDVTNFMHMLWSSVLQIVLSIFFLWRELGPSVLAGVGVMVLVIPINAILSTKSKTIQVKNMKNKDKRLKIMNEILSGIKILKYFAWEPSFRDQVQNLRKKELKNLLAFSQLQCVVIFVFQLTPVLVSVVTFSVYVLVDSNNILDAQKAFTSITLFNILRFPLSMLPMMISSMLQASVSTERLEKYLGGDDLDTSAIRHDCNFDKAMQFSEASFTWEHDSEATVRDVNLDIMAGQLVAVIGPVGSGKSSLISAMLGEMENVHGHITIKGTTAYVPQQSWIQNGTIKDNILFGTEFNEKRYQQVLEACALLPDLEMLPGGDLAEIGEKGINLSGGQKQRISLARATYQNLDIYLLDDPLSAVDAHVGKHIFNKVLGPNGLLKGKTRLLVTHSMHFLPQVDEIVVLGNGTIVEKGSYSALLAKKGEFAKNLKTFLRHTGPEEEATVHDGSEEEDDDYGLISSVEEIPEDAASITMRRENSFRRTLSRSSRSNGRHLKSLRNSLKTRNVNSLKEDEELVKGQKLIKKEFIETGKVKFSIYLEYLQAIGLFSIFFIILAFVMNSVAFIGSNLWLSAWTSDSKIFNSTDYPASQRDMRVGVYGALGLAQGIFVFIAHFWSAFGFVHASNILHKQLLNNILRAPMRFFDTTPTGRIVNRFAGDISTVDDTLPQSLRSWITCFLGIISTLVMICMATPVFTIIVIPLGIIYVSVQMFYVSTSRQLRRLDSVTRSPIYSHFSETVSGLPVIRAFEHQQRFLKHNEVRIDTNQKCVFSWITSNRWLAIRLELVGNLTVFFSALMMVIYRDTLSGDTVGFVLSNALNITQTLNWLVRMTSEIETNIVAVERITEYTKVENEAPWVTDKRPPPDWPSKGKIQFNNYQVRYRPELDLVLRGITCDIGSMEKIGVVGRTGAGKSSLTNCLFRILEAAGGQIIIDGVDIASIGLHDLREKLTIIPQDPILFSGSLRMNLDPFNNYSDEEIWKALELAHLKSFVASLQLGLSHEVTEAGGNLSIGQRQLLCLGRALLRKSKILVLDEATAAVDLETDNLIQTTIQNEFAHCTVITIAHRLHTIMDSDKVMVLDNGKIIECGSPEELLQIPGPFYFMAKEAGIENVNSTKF

Sequence of MDR1 (P-gp) (P08183 whole entry): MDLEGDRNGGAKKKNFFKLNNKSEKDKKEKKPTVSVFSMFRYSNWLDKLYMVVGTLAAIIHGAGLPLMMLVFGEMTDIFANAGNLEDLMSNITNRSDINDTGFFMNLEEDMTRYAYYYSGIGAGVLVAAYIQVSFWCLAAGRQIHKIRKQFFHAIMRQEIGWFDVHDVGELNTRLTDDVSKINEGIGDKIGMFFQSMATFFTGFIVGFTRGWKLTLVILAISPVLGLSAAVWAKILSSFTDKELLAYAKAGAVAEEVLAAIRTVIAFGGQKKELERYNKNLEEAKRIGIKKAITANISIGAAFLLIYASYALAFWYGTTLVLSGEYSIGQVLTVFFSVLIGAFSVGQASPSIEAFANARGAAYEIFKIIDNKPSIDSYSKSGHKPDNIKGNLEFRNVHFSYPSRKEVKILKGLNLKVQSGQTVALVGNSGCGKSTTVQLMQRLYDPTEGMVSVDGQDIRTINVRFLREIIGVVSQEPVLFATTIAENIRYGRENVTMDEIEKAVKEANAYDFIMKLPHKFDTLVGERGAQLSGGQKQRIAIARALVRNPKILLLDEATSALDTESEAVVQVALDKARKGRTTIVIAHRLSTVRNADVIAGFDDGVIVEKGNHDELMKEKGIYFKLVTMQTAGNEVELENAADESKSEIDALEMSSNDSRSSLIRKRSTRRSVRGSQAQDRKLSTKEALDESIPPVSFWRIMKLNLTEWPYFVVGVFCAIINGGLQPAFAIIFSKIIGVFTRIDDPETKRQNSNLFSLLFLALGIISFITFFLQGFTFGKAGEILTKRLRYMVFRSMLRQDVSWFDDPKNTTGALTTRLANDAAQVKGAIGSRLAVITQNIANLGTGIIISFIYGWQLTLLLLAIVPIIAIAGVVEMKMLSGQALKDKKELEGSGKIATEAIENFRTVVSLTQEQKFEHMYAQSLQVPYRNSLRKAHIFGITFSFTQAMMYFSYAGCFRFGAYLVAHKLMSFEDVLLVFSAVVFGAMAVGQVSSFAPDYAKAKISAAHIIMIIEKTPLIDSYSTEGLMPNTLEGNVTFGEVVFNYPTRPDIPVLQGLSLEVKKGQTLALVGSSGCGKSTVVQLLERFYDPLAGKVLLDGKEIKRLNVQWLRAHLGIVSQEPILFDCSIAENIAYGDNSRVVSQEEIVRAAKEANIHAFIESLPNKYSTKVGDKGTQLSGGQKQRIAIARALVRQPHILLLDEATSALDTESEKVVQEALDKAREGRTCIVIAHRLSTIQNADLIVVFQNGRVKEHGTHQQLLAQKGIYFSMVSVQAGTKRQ

Turning to `O=c1cc(-c2ccccc2)oc2cc(O)c(O)c(O)c12` [baicalein], the “effect on glucuronide metabolites / glucuronide conjugation of silybin” value in data set [1] was “almost undetected”. This compound also yielded an IC50 in data set [2] of 20.6 µM. Besides, in data set [3], inhibition was half-maximal at 21.2 µM (IC50) and the “efflux ratio of CDCFDA in the presence of inhibitor” value came to 1.46.
The corresponding values for `COc1ccc(-c2cc(=O)c3c(OC)c(OC)c(OC)c(OC)c3o2)cc1` [tangeretin] are “did not significantly inhibit the conjugation”, 6.88 µM, 8.84 µM and 1.54.

For orientation: IC50 means the concentration that inhibits the measured activity by half.
